Like-named read-outs stand apart in the source and are kept apart here.
Tests used:
Format in all cases: cell-based
[1] = Cell viability assay (CellTiter-Glo, CTG protocol), ARH-77; conditions: human, ARH-77 cells (lymphoblast-like), ARH-77 (MCL-1 independent line), 24 hours incubation, 1% FBS, read-out: Average pCC50 by molecule ARH-77 (converted)
Description: (§1) The effect of various compounds of the invention on the viability of MV4-11 and ARH-77 cell lines was investigated, using the CTG protocol described below.
(§2) MV4-11 cell lines are derived from acute myeloid leukaemia and it is described in the literature as a MCL-1 dependent cell line, as opposed to lymphoblast-like ARH-77 cell line, which is described as independent of MCL-1 (Tron A E et al. Nat Commun. 2018; 9: 5341; Caenepeel S et al. Cancer Discov. 2018 December; 8(12): 1582-1597).
(§3) Cells (MV4-11 or ARH-77) were seeded on […] in a growth medium with 1% FBS. Next, compound stocks were pre-diluted in DMSO and added directly to the cell culture media (final DMSO concentration: 0.5%). Compound concentrations used in this assay: 1/3 dilutions starting at 30 μM (9 to 12 points). After 24 hours of incubation, cell viability was evaluated using CellTiter-Gob® Luminescent Cell Viability Assay (Promega, cat #G7572). The luminescence signal was measured using a CLARIOstar Plus Multi-Mode Microplate Reader (574-590 nm).
(§4) Results were normalized to DMSO control. Collected data were analyzed using GraphPad Prism to calculate pCC50 values (i.e. the negative log of the CC50 value). CC50 (50% cytotoxic concentration) is the effective concentration of a cytotoxic compound, which produces 50% of the maximum possible cell death (i.e. the concentration of the compound which is required in order to reduce cell viability by 50%). CC50 is often used rather than IC50 in cell toxicity assays.

MV4-11 cells = test: Cell viability assay (CellTiter-Glo, CTG protocol), MV4-11; conditions: Homo sapiens, MV4-11 (MCL-1 dependent AML line), 24 hours incubation, 1% FBS, read-out: Average pCC50 by molecule MV4-11 (converted)
Description: as §1, §2, §3, §4

CRBN = target: T1, CRBN (Homo sapiens, UniProt Q96SW2); test: NanoBRET In-cell CRBN Target Engagement Assay (live and lytic mode), NanoLuc CRBN HEK293 cells
T1 construct: host or cells: HEK293 (NanoLuc CRBN HEK293 cells)
T1 sequence (Q96SW2 whole entry): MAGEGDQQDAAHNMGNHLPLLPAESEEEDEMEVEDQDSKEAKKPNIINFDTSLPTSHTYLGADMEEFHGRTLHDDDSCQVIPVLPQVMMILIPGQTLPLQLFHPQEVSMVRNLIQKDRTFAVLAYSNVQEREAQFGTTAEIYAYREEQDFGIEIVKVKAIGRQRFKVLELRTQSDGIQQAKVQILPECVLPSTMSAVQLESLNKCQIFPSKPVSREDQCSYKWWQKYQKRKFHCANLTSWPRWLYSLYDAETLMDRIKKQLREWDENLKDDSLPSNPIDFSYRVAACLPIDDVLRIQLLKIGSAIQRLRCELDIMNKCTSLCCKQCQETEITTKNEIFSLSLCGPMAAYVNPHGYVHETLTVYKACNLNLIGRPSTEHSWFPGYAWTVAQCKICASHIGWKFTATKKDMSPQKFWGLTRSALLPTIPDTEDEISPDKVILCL
Protocol: Commercially available, NanoBRET In-cell CRBN Target Engagement Assay (NanoBRET CRBN TE Assay), which uses NanoLuc CRBN HEK293 cells and NanoBRET In-cell CRBN Tracer was used (N2910, N2912, PROMEGA) to determine the cell membrane permeability of prodrugs of MCL-1 degraders.
The assay was run in 96-well plate format (cat. 3600, Corning). NanoLuc CRBN HEK293 cells were treated with CRBN Tracer and compounds. Briefly, prepared was cell suspension (0.17×10^6cells/ml) in Opti-MEM without phenol red (Life Technologies). The cells were treated with CRBN Tracer (20× concentrated, 5 μl/well. For the live mode: 0.8 μM and for the lytic: 0.17 μM final concentration) or DMSO vehicle control (20× concentrated, 5 μl/well). Such prepared cells were seeded into the wells of 96-well plate on top of compounds (100× concentrated, 1 μl/well; 11-point 2-fold dilution) pre-plated on them with the help of Echo 555 acoustic dispenser (Labcyte). For the lytic mode assay, Digitonin (0.05 mg/ml, 10× concentrated, 10 μl/well) was added additionally. In the live mode assay, the plate was incubated at 37° C., 5% CO2 for 2 hours, and then at room temperature for 15 minutes to cool down. In the lytic mode assay, there was no incubation. The 3×Complete NanoBRET reagent (50 μl/well) was prepared according to the manufacturer's recommendations, appropriately for live and lytic mode. The plate was incubated for 2 minutes at room temperature and the luminescence and fluorescence readings followed using CLARIOstar Multimode Plate Reader (donor emission RLU—450 nm; acceptor emission RFU—610 nm). RBA value is an indicator of cell membrane permeability (the lower, the better) is calculated from absolute pIC50 (the negative log of the absolute IC50 value when converted to molar) of the live mode assay (pIC50 Live) and the lytic mode assay (pIC50 Lytic).

[2] = live mode, intact cells, 2 hours at 37° C., read-out: pIC50 (live) (converted)
[3] = lytic mode, digitonin-lysed cells, no incubation, read-out: pIC50 (lytic) (converted)

| IC50 (CRBN; [2]) | IC50 (CRBN; [3]) | Structure (SMILES) | CC50 at 24 h [1] | CC50 (MV4-11 cells) |
| --- | --- | --- | --- | --- |
| – | – | Cc1nn(C)c(C)c1-c1c(Cl)ccc2c(CCCOc3cccc4cc(F)ccc34)c(C(=O)OCCS(C)(=O)=O)n(CCN3CCN(C(=O)COc4cccc5c4CN(C4CCC(=O)NC4=O)C5=O)CC3)c12 (stereo not drawn) [Compound 124, 2-(Methylsulfonyl)ethyl 6-chloro-1-(2-(4-(2-((2-(2,6-dioxopiperidin-3-yl)-1-oxoisoindolin-4-yl)oxy)acetyl)piperazin-1-yl)ethyl)-3-(3-((6-fluoronaphthalen-1-yl)oxy)propyl)-7-(1,3,5-trimethyl-1H-pyrazol-4-yl)-1H-indole-2-carboxylate] | > 31600 nM | < 1000 nM |
| – | – | Cc1nn(C)c(C)c1-c1c(Cl)ccc2c(CCCOc3cccc4cc(F)ccc34)c(C(=O)OCOC(=O)C(C)(C)C)n(CCN3CCC(CN4CCN(c5ccc6c(c5)CN([C@H]5CCC(=O)NC5=O)C6=O)CC4)CC3)c12 [Compound 71, (Pivaloyloxy)methyl (S)-6-chloro-1-(2-(4-((4-(2-(2,6-dioxopiperidin-3-yl)-1-oxoisoindolin-5-yl)piperazin-1-yl)methyl)piperidin-1-yl)ethyl)-3-(3-((6-fluoronaphthalen-1-yl)oxy)propyl)-7-(1,3,5-trimethyl-1H-pyrazol-4-yl)-1H-indole-2-carboxylate] | > 10000 nM | < 100 nM |
| – | – | COCCOCC(=O)OCOC(=O)c1c(CCCOc2cccc3cc(F)ccc23)c2ccc(Cl)c(-c3c(C)nn(C)c3C)c2n1CCN1CCN(C(=O)COc2cccc3c2CN(C2CCC(=O)NC2=O)C3=O)CC1 (stereo not drawn) [Compound 57, (2-(2-Methoxyethoxy)acetoxy)methyl 6-chloro-1-(2-(4-(2-((2-(2,6-dioxopiperidin-3-yl)-1-oxoisoindolin-4-yl)oxy)acetyl)piperazin-1-yl)ethyl)-3-(3-((6-fluoronaphthalen-1-yl)oxy)propyl)-7-(1,3,5-trimethyl-1H-pyrazol-4-yl)-1H-indole-2-carboxylate] | > 10000 nM | < 10 nM |
| – | – | CC(=O)OC(C)OC(=O)c1c(CCCOc2cccc3cc(F)ccc23)c2ccc(Cl)c(-c3c(C)nn(C)c3C)c2n1CCN1CCN(C(=O)COc2cccc3c2CN(C2CCC(=O)NC2=O)C3=O)CC1 (stereo not drawn) [Compound 75, 1-Acetoxyethyl 6-chloro-1-(2-(4-(2-((2-(2,6-dioxopiperidin-3-yl)-1-oxoisoindolin-4-yl)oxy)acetyl)piperazin-1-yl)ethyl)-3-(3-((6-fluoronaphthalen-1-yl)oxy)propyl)-7-(1,3,5-trimethyl-1H-pyrazol-4-yl)-1H-indole-2-carboxylate] | > 31600 nM | < 10 nM |
| 398 nM | 251 nM | Cc1nn(C)c(C)c1-c1c(Cl)ccc2c(CCCOc3cccc4cc(F)ccc34)c(C(=O)OCCN3CCN(C)CC3)n(CCN3CCN(C(=O)COc4cccc5c4CN(C4CCC(=O)NC4=O)C5=O)CC3)c12 (stereo not drawn) [Compound 133, 2-(4-Methylpiperazin-1-yl)ethyl 6-chloro-1-(2-(4-(2-((2-(2,6-dioxopiperidin-3-yl)-1-oxoisoindolin-4-yl)oxy)acetyl)piperazin-1-yl)ethyl)-3-(3-((6-fluoronaphthalen-1-yl)oxy)propyl)-7-(1,3,5-trimethyl-1H-pyrazol-4-yl)-1H-indole-2-carboxylate] | – | – |
| 316 nM | 355 nM | Cc1nn(C)c(C)c1-c1c(Cl)ccc2c(CCCOc3cccc4cc(F)ccc34)c(C(=O)OCCN3CCOCC3)n(CCN3CCN(C(=O)COc4cccc5c4CN(C4CCC(=O)NC4=O)C5=O)CC3)c12 (stereo not drawn) [Compound 129, 2-Morpholinoethyl 6-chloro-1-(2-(4-(2-((2-(2,6-dioxopiperidin-3-yl)-1-oxoisoindolin-4-yl)oxy)acetyl)piperazin-1-yl)ethyl)-3-(3-((6-fluoronaphthalen-1-yl)oxy)propyl)-7-(1,3,5-trimethyl-1H-pyrazol-4-yl)-1H-indole-2-carboxylate] | – | – |
